smiles,measurement,value
"COC(=O)NOc1cc(/C(C)=N/OCc2cccc(C(F)(F)F)n2)ccc1Cl [Compound 1446, methyl N-(2-chloro-5-{1-[6-trifluoromethylpyridin-2-ylmethoxyimino]ethyl}phenoxy) carbamate]",melting point,100 to 101 °C

# Reference: US8268755B2, “Oxime ether derivative and fungicide for agricultural and horticultural use” (Nippon Soda Co., Ltd., priority 2007, dated 2012)
